Data reported in patent publication US20120309796A1, “BENZOCYCLOHEPTENE ACETIC ACIDS” (priority 2011, published 2012).

Key:
human CRTH2 [1] = molecular target: T1, human CRTH2 (Homo sapiens, UniProt Q9Y5Y4); assay: Calcium Flux Assay Using Fluorometric Imaging Plate Reader (FLIPR); format: cell-based; design: expressed in transfected cells; host or cells: CHO-K1 previously transfected with G-alpha 16; conditions: CHO-K1 cells with G-alpha 16 and human CRTH2; inhibition of DK-PGD2 ligand-induced Ca2+ flux
T1 sequence (Q9Y5Y4 1-395): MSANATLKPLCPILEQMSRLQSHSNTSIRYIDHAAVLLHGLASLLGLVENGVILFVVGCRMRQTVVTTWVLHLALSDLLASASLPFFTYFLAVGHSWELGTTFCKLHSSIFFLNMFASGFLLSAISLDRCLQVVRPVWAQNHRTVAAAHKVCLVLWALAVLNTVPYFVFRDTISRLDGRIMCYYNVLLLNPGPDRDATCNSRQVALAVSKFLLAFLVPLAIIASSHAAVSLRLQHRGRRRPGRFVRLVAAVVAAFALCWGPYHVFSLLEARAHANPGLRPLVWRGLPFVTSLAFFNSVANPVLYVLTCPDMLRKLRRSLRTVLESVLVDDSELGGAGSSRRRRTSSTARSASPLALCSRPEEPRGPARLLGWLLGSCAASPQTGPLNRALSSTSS
Experimental: CHO-K1 cells previously transfected with G-alpha 16 were subsequently transfected with the human CRTH2 receptor and the neomycin resistance gene. Following selection in 800 μg/mL G418 (geneticin), individual clones were assayed for their receptor expression based on staining with an anti human CRTH2 IgG, followed by assaying for their response to 13,14-dihydro-15-keto Prostaglandin D2 (DK-PDG2) (ligand) in the Ca^2+ Flux assay. Positive clones were then cloned by limiting dilution cloning. The transfected cells were cultured in Ham's F-12 medium supplemented with 10% fetal bovine serum, 2 mM glutamine, 100 U/mL penicillin/100 μg/mL streptomycin, 200 μg/mL hygromycin B, and 800 μg/mL G418 (geneticin). Cells were harvested with trypsin-EDTA (trypsin-ethylenediaminetetraacetic acid) and counted using ViaCount® reagent (from Guava Technologies, Inc. which contains two DNA-binding dyes that enable the reagent user to distinguish between viable and non-viable cells). The cell suspension volume was adjusted to 2.5×10^5 cells/mL with complete growth media. Aliquots of 50 μL were dispensed into BD Falcon™ 384 well black/clear microplates (from BD Biosciences, a division of Becton, Dickinson and Company) and the microplates were placed in a 37° C. CO2 incubator overnight. The following day, the microplates were used in the assay.
Loading Buffer containing dye (from the FLIPR® Calcium 3 Assay Kit from Molecular Devices, a division of MDS Analytical Technologies and MDS Inc.) was prepared by dissolving the contents of one bottle into 200 mL Hank's Balanced Salt Solution containing 20 mM HEPES (4-(2-hydroxyethyl)-1-piperazineethanesulfonic acid) and 2.5 mM probenecid. Growth media was removed from the cell plates and 25 μL of Hank's Balanced Salt Solution (HBSS) containing 20 mM HEPES, 0.05% BSA and 2.5 mM probenecid was added to each well followed by 25 μL of diluted dye using a Multidrop dispenser. The plates were then incubated for 1 hour at 37° C.
During the incubation, test compound plates were prepared by adding 90 μL of HBSS/20 mM HEPES/0.005% BSA buffer to the 2 μL of serial diluted compounds. To prepare serial diluted compounds, 20 mM stocks of compounds were dissolved in 100% DMSO. The compound dilution plate was set up as follows: well #1 received 5 μL of compound plus 10 μL of DMSO. Wells 2-10 received 10 μL of DMSO. 5 μL was mixed and transferred from well #1 into well #2. 1:3 serial dilutions were continued out 10 steps. 2 μl of diluted compound was transferred into duplicate wells of a 384 well “assay plate” and then 90 μL of buffer was added.
After incubation, both the cell and “assay plate” plates were brought to the fluorometric imaging plate reader (FLIPR®) and 20 μL of the diluted compounds were transferred to the cell plates by the FLIPR®. Plates were then incubated for 1 hour at room temperature. After the 1 hour incubation, plates were returned to the FLIPR® and 20 μL of 4.5× concentrated ligand was added to the cell plates. During the assay, fluorescence readings were taken simultaneously from all 384 wells of the cell plate every 1.5 seconds. Five readings were taken to establish a stable baseline, then 20 μL of sample was rapidly (30 μL/sec) and simultaneously added to each well of the cell plate. The fluorescence was continuously monitored before, during and after sample addition for a total elapsed time of 100 seconds. Responses (increase in peak fluorescence) in each well following agonist addition were determined. The initial fluorescence reading from each well, prior to ligand stimulation, was used as a zero baseline value for the data from that well. The responses were expressed as % inhibition of the buffer control. […]

human CRTH2 [2] = molecular target: T1, human CRTH2; assay: Human CRTH2 Receptor Binding Assay (whole cell, [3H]ramatroban competition); design: two mammalian expression vectors that harbored human CRTH2 and G-alpha16 cDNAs; expressed in transfected cells; conditions: CHO-K1 cells expressing human CRTH2 and G-alpha16; 20 nM [3H]ramatroban; 1 hour, room temperature
Source text: A whole cell receptor binding assay using [^3H]ramatroban as the competing radioactive ligand was employed to evaluate the compound binding activity to human CRTH2. The radioactive ligand [^3H]ramatroban was synthesized according to Sugimoto et. al. (Eur. J. Pharmacol. 2005, 524, 30-37) to a specific activity of 42 Ci/mmol
A cell line stably expressing human CRTH2 was established by transfecting CHO-K1 cells with two mammalian expression vectors that harbored human CRTH2 and G-alpha16 cDNAs, respectively, using FuGene® 6 transfection reagent (from Roche). Stable clones expressing CRTH2 were selected by staining each clone with BM16 (BD Pharmingen™ from BD Biosciences, a division of Becton, Dickinson and Company), which is a rat monoclonal antibody to human CRTH2. The cells were maintained as monolayer cultures in Ham's F-12 medium containing 10% fetal bovine serum, 100 units/mL penicillin, 100 μg/mL streptomycin, 2 mM glutamine, 0.5 mg/mL G418 (geneticin) for CRTH2, and 0.2 mg/mL hygromycin-B (for G-alpha 16). For whole cell receptor binding assay, the monolayer cells were rinsed once with PBS (phosphate buffered saline), dissociated using ethylenediaminetetraacetate (Versene™ EDTA from Lonza Inc.), and suspended in PBS containing 10 mM MgCl2 and 0.06% BSA (bovine serum albumin) at 1.5×10^6 cells/mL.
The binding reactions (0.2 mL) were performed in 96-well plates at room temperature in PBS containing 1.5×10^5 cells, 10 mM MgCl2, 0.06% BSA, 20 nM [^3H]ramatroban, and test compound at various concentrations. After 1 hour of binding reactions, the cells were harvested on GF™/B filter microplates (microtiter plates with embedded glass fiber from PerkinElmer, Inc.) and washed 5 times with PBS using a Filtermate™ Harvester (a cell harvester that harvests and washes cells from microplates from PerkinElmer, Inc.). The radioactivities bound to the cells were determined using a microplate scintillation counter (TopCount® NXT, from PerkinElmer, Inc.) after adding 50 μL of Microscint™ 20 scintillation fluid (from PerkinElmer, Inc.) to each well of the filter plates. The radioactivity from non-specific binding was determined by replacing compound with 10 μM of 15(R)-15-methyl PGD2 (from Cayman Chemical Company) in the reaction mixtures. The radioactivity bound to the cells in the absence of compound (total binding) was determined by replacing compound with 0.25% of DMSO (dimethyl sulfoxide) in the reaction mixture. Specific binding data were obtained by subtracting the radioactivity of non-specific binding from each binding data.
The IC50 value is defined as the concentration of the tested compound that is required for 50% inhibition of total specific binding. In order to calculate the IC50 value, the percent inhibition data were determined for 7 concentrations for each compound. The percent inhibition for a compound at each concentration was calculated according to the following formula, [1-(specific binding in the presence of compound)/(total specific binding)]×100. The IC50 value was then obtained by fitting the percent inhibition data to a sigmoidal dose-response (4 parameter logistic) model in the XLfit® software Excel add-in program [from ID Business Solutions Ltd., model 205, where F(x)=(A+(B−A)/(1+((C/x)̂D)))].

Row | Structure (SMILES) | IC50 (human CRTH2 [1]) | IC50 (human CRTH2 [2])
1 | O=C(O)COc1cccc2c1CCCCC2NS(=O)(=O)c1ccc(-c2cccc(C(F)(F)F)c2)cn1 (stereo not drawn) [Example 33, {5-[5-(3-Trifluoromethyl-phenyl)-pyridine-2-sulfonylamino]-6,7,8,9-tetrahydro-5H-benzocyclohepten-1-yloxy}-acetic acid] | 29.2 nM | 178 nM
2 | CN(C1CCCCc2c(OCC(=O)O)cccc21)S(=O)(=O)c1ccc(-c2cccc(C(F)(F)F)c2)cn1 (stereo not drawn) [Example 34, (5-{Methyl-[5-(3-trifluoromethyl-phenyl)-pyridine-2-sulfonyl]-amino}-6,7,8,9-tetrahydro-5H-benzocyclohepten-1-yloxy)-acetic acid] | 4310 nM | 457 nM
3 | O=C(O)COc1cccc2c1CCCCC2NS(=O)(=O)c1ccc(-c2cccc(CCO)c2)cn1 (stereo not drawn) [Example 37, (5-{5-[3-(2-Hydroxy-ethyl)-phenyl]-pyridine-2-sulfonylamino}-6,7,8,9-tetrahydro-5H-benzocyclohepten-1-yloxy)-acetic acid] | 214 nM | 17 nM
4 | CC(C)c1cccc(-c2cccc(S(=O)(=O)NC3CCCCc4c(OCC(=O)O)cccc43)c2)c1 (stereo not drawn) [Example 41, [5-(3′-Isopropyl-biphenyl-3-sulfonylamino)-6,7,8,9-tetrahydro-5H-benzocyclohepten-1-yloxy]-acetic acid] | > 5000 nM | 226 nM

Continued, values first:

Row | IC50 (human CRTH2 [1]) | IC50 (human CRTH2 [2]) | Structure (SMILES)
5 | 140 nM | 17.9 nM | Cc1cc(-c2ccc(S(=O)(=O)NC3CCCCc4c(OCC(=O)O)cccc43)nc2)cc(C(C)(C)C)c1 (stereo not drawn) [Example 35, {5-[5-(3-tert-Butyl-5-methyl-phenyl)-pyridine-2-sulfonylamino]-6,7,8,9-tetrahydro-5H-benzocyclohepten-1-yloxy}-acetic acid]
6 | 784 nM | 164 nM | Cc1cc(-c2ccc(S(=O)(=O)N(C)C3CCCCc4c(OCC(=O)O)cccc43)nc2)cc(C(C)(C)C)c1 (stereo not drawn) [Example 36, (5-{[5-(3-tert-Butyl-5-methyl-phenyl)-pyridine-2-sulfonyl]-methyl-amino}-6,7,8,9-tetrahydro-5H-benzocyclohepten-1-yloxy)-acetic acid]
